# Test results as given in ChEMBL document CHEMBL1150546, “Adenosine dialdehyde analogs I: Regioselective synthesis of adenosine monoaldehydes” (Bioorg Med Chem Lett, 1996).
# Columns and labels:
# Adenosylhomocysteinase [1] = molecular target: T1, Adenosylhomocysteinase (Homo sapiens, UniProt P23526); test: Compound was tested for inhibition of S-adenosyl homocysteine (SAH) hydrolase.
# Target sequence in this assay (P23526 whole entry): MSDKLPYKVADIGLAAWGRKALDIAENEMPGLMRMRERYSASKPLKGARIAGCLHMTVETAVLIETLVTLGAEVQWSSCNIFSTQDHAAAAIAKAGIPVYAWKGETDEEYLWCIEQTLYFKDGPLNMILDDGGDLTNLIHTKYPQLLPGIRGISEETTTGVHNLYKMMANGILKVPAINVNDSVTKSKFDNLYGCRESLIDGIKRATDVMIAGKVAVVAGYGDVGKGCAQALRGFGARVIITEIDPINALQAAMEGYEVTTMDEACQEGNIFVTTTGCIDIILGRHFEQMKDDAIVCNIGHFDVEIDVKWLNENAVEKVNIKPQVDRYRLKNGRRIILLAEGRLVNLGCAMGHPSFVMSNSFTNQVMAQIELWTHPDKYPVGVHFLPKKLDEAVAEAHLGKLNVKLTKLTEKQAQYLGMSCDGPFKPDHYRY
# L929 = test: cells; conditions: Mus musculus
# Vero = test: cells; conditions: Chlorocebus sabaeus
# Adenosylhomocysteinase [2] = molecular target: T1, Adenosylhomocysteinase; test: Percentage inhibition of S-adenosyl homocysteine (SAH) hydrolase by the compound at a concentration of 10 uM.
# Target sequence in this assay (P23526 2-432 limits assumed): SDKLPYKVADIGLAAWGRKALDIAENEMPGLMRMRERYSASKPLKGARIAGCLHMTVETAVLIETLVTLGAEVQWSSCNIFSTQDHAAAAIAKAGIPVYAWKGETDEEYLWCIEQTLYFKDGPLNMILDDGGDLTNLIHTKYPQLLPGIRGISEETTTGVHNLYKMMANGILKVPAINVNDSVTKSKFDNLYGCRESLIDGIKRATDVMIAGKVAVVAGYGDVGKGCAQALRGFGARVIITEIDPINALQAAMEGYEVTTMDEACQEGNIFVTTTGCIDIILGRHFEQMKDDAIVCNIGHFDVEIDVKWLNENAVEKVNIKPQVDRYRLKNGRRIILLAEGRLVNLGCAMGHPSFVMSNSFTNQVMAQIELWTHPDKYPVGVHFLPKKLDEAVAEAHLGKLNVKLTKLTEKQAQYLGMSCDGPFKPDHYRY
# Adenosylhomocysteinase [3] = molecular target: T1, Adenosylhomocysteinase; test: Compound was tested for competitive inhibition against S-adenosyl homocysteine (SAH) hydrolase.
# Target sequence in this assay (P23526 whole entry): as the sequence (P23526 whole entry) above
Compound,Ki (Adenosylhomocysteinase [1]) [nM],IC50 (L929) [µg/mL],IC50 (Vero) [µg/mL],inhibition (Adenosylhomocysteinase [2]) [%],Ki (Adenosylhomocysteinase [3]) [nM]
Nc1ncnc2c1ncn2C(C=O)OC(C=O)CO (stereo unspecified),3.3,3.1,0.41,–,–
Nc1ncnc2c1ncn2[C@@H](C=O)OC(CO)CO,–,–,–,4,–
C=C(C=O)OC(C=O)n1cnc2c(N)ncnc21 (stereo unspecified),0.5,8.9,11.5,–,–
Nc1ncnc2c1ncn2[C@@H](CO)O[C@@H](C=O)CO,–,1.9,0.41,89,1900
